In general, IC50 refers to the midpoint of a concentration-inhibition curve.

SMILES strings stand for the structures. Like-named read-outs stand apart in the source and are kept apart here. Bounds are passed on as bounds.

Format in all cases: biochemical
Assay [1] has as its target T1, human TOR (Homo sapiens, UniProt P42345).
T1 construct: FLAG
Briefly: mTOR enzyme assay (DELFIA, His6-S6K substrate).

In assay [2] the target is PI3K-beta (Homo sapiens, UniProt P42338). Briefly: PI3K-beta fluorescence polarization assay. Conditions: read-out: PI3Kβ Avg. IC50. On the procedure:
PI3K-Alpha, PI3K-Beta, PI3K-Gamma, and PI3K-delta Fluorescence Polarization Assay Protocols
PI3-Kinase reactions were performed in 5 mM HEPES, pH 7, 2.5 mM MgCl2, and 25 μM ATP, with diC8-PI(4,5)P2 (Echelon, Salt Lake City Utah) as substrate. Nunc 384-well black polypropylene fluorescent plates were used for PI3K assays. Reactions were quenched by the addition of EDTA to a final concentration of 10 mM. Final reaction volumes were 10 μl. For evaluation of PI3K inhibitors, 5 ng of enzyme (PI3K-alpha, beta, gamma, or delta) and 2.5 μM of substrate was used per […] reaction volume, and inhibitor concentrations ranged from 100 μM to 20 μM; the final level of DMSO in reactions never exceeded 2%. Reactions were allowed to proceed for one hour at 25° C. After 1 hour, GST-tagged GRP1 (general receptor for phosphoinositides) PH domain fusion protein was added to a final concentration of 100 nM, and BODIPY-TMRI(1,3,4,5)P4 (Echelon) was also added to a final concentration of 5 nM. Final sample volumes were 25 μl with a final DMSO concentration of 0.8%. Assay Plates were read on Perkin-Elmer Envision plate readers with appropriate filters for Tamra [BODIPY-TMRI(1,3,4,5)P4]. Data obtained were used to calculate enzymatic activity and enzyme inhibition by inhibitor compounds.
For orientation: Polarisation of emitted light reports the rotation of a fluorescent probe.

For assay [3], the target named is PI3K-delta (Homo sapiens, UniProt O00329). The experiment in a line: PI3K-delta fluorescence polarization assay. To be noted: read-out: PI3Kδ Avg. IC50.
Assay [4] deals with PI3K-gamma (Homo sapiens, UniProt P48736). The experiment in a line: PI3K-gamma fluorescence polarization assay. Conditions: PI3Kγ Avg. IC50. A digest of the protocol:
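Each isoform (5 ng) phosphorylated 2.5 μM diC8-PI(4,5)P2 at 25 μM ATP for one hour at 25° C in the presence of inhibitor. Reactions were then stopped with EDTA, and product was detected by fluorescence polarization using a GST-GRP1 PH domain and a BODIPY-TMR-labelled IP4 tracer.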

In assay [5] the target is PI3K-alpha (Homo sapiens, UniProt P42336). Briefly: PI3K-alpha fluorescence polarization assay.
The mark [6] stands for this setting: read-out: mTOR Kinase Avg. IC50.

Sequence of PI3K-gamma (P48736 whole entry, species assumed, the tested form may be a part, canonical isoform): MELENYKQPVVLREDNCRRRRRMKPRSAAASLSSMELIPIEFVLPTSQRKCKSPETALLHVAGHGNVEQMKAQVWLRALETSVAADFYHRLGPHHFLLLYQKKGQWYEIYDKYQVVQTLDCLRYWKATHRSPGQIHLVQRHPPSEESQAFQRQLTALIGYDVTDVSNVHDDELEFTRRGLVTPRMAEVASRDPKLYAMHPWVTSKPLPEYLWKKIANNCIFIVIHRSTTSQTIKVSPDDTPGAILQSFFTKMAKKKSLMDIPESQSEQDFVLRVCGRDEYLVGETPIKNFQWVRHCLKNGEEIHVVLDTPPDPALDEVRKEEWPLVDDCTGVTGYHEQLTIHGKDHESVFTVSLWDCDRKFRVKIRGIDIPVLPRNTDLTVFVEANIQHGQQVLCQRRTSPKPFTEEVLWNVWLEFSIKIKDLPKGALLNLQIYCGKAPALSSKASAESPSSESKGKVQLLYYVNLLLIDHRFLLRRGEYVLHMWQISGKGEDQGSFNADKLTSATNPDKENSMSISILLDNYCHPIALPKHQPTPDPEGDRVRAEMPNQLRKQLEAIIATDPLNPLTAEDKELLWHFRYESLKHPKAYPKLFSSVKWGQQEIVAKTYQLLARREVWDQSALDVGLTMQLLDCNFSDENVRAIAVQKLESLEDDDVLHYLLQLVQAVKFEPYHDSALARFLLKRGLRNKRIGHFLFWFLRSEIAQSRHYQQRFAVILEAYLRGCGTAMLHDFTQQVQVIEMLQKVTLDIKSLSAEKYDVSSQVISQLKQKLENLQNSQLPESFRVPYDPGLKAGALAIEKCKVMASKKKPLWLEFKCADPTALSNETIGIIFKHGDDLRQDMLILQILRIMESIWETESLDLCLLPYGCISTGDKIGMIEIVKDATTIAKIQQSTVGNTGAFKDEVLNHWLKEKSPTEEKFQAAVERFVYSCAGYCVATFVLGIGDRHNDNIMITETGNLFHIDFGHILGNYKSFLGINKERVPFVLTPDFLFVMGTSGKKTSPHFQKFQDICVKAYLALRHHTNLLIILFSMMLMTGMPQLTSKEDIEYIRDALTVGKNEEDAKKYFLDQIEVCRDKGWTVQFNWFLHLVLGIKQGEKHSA
Sequence of PI3K-delta (O00329 whole entry, species assumed): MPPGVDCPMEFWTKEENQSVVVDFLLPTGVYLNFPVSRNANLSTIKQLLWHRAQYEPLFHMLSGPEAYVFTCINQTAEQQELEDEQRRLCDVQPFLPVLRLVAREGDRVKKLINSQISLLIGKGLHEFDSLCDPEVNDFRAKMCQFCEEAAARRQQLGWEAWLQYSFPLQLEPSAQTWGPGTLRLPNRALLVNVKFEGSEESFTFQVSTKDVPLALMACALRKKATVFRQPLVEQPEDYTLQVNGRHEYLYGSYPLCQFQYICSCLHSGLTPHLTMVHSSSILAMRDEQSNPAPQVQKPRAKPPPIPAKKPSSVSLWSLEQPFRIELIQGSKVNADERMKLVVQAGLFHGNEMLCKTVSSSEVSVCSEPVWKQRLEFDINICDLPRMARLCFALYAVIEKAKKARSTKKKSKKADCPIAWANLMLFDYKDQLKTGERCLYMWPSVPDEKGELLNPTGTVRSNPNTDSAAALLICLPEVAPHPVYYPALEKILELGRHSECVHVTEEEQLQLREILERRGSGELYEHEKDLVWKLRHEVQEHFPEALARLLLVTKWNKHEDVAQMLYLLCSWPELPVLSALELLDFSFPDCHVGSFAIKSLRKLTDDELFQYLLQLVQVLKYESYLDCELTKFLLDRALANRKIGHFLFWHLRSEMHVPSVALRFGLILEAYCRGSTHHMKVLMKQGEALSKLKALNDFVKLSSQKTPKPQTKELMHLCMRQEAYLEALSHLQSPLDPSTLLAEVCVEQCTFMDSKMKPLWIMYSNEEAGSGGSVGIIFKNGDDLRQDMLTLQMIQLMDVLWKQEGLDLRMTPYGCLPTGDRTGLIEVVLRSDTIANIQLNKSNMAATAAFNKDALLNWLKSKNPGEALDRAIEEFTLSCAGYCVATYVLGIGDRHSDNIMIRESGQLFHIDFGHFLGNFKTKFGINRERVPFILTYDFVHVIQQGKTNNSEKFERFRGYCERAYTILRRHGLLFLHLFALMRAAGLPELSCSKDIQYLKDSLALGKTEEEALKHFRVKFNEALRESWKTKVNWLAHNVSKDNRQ
Sequence of PI3K-delta (P27986 whole entry partner, species assumed): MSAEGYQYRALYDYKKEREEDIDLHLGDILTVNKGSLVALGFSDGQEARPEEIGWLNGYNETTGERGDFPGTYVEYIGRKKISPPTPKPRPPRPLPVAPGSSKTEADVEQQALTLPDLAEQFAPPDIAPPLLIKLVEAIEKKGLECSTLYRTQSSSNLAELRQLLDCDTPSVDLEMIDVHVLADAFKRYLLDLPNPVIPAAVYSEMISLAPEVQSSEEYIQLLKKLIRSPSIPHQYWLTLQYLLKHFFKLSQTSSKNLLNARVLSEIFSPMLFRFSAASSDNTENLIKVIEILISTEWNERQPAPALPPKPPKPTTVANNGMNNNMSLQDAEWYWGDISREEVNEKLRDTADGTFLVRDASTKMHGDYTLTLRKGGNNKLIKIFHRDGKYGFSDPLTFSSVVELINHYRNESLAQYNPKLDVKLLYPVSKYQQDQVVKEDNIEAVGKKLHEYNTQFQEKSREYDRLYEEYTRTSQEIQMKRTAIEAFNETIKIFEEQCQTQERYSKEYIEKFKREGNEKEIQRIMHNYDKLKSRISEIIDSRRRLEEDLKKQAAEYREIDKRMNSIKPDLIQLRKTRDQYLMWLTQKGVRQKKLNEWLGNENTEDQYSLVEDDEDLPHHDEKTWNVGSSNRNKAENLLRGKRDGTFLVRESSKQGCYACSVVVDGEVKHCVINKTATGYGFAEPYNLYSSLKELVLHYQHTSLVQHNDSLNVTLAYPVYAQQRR
Sequence of PI3K-beta (P42338 whole entry, species assumed): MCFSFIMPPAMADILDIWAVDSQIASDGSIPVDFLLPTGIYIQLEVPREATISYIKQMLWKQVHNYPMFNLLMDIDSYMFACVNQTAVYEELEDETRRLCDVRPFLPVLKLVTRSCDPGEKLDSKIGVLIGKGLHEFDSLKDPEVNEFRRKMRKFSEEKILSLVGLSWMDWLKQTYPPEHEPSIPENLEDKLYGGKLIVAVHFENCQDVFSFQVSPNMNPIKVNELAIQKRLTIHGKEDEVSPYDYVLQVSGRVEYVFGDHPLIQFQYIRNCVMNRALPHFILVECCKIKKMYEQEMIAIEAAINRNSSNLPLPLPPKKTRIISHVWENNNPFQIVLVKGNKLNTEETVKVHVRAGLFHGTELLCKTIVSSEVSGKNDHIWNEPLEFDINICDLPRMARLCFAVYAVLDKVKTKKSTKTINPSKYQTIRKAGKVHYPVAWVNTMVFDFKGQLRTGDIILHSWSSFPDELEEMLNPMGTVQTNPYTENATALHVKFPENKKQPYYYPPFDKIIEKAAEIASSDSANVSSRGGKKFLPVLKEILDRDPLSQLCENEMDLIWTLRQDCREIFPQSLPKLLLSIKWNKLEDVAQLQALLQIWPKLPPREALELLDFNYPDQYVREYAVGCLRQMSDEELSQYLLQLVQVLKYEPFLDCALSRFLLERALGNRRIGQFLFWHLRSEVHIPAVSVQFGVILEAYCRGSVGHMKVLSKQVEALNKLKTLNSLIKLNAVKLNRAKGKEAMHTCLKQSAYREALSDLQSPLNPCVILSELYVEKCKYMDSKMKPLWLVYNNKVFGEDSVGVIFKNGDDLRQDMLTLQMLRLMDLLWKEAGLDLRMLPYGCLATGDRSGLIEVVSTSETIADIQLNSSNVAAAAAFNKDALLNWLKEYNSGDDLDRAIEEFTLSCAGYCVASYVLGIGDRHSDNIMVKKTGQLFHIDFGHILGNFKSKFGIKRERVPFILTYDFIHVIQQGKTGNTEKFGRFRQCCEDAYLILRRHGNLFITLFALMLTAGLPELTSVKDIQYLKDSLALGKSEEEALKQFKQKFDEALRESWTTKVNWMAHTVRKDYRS
Sequence of PI3K-beta (P27986 whole entry partner, species assumed): as the sequence (P27986 whole entry partner, species assumed) above
Sequence of PI3K-alpha (P42336 whole entry, species assumed): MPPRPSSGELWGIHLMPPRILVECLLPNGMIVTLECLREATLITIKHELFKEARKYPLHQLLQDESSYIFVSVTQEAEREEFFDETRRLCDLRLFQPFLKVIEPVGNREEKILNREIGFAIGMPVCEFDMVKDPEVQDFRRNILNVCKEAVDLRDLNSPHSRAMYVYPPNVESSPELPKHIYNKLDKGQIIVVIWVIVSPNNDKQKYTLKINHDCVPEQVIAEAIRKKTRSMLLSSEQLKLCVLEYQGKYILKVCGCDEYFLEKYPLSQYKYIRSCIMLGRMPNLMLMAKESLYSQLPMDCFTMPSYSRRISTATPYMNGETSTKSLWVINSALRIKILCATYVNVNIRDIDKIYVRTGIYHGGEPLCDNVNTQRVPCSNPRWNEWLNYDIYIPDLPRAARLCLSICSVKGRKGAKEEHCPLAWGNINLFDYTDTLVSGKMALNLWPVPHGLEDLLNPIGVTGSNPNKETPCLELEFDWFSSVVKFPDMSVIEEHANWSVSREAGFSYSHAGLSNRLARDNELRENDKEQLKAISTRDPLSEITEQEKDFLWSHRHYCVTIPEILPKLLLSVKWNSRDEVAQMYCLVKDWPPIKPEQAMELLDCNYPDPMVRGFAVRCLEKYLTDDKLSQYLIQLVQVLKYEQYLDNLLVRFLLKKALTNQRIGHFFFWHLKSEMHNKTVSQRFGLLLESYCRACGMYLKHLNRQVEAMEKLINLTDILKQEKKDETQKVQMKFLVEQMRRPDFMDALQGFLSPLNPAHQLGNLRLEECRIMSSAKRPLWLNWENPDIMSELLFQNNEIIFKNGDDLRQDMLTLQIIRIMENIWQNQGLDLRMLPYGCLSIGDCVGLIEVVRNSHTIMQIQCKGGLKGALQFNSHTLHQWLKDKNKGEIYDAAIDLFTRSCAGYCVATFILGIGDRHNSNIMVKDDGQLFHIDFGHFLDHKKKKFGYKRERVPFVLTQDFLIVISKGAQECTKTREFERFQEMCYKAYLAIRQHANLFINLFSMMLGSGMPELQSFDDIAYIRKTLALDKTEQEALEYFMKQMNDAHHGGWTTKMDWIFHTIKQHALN
Sequence of PI3K-alpha (P27986 whole entry partner, species assumed): as the sequence (P27986 whole entry partner, species assumed) above

Consider `COc1ccc2[nH]c(-c3cncnc3)c(/C=C3\Oc4cc(O)cc(O)c4C3=O)c2c1` [Example 354, (2Z)-4,6-Dihydroxy-2-[(5-methoxy-2-pyrimidin-5-yl-1H-indol-3-yl)methylene]-1-benzofuran-3(2H)-one], for which the concentration for half-maximal inhibition (IC50) in assay [1] (setting [6]) was determined as 18 nM; in assay [2] it was 44 nM; in assay [3] it was 14.5 nM; in assay [4] it was 55 nM; in assay [5] (read-out: PI3Kα Avg. IC50) it was 6.5 nM.
In the case of `COc1ccc2c(c1)c(C=C1Oc3cc(O)cc(O)c3C1=O)cn2CCCN1CCOCC1` [Example 112, 4,6-dihydroxy-2-{[5-methoxy-1-(3-morpholin-4-ylpropyl)-1H-indol-3-yl]methylene}-1-benzofuran-3(2H)-one], the IC50 turned out to be 430 nM in assay [1] (mTOR Kinase Avg. IC50); 181 nM in assay [2]; 6 nM in assay [3]; 646 nM in assay [4]; 42 nM in assay [5] (PI3Kα Avg. IC50).
On to `COc1ccc2c(c1)c(/C=C1\Oc3cc(O)c(Br)cc3C1=O)c(C)n2CCN1CCN(C)CC1` [Example 349, (2Z)-5-Bromo-6-hydroxy-2-({5-methoxy-2-methyl-1-[2-(4-methylpiperazin-1-yl)ethyl]-1H-indol-3-yl}methylene)-1-benzofuran-3(2H)-one], for which the IC50 is greater than 20000 nM in assay [1] (setting [6]); 931 nM in assay [2]; 19 nM in assay [3]; 5590 nM in assay [4]; 82.5 nM in assay [5] (read-out: PI3Kα Avg. IC50).
The corresponding values for `COc1ccc2c(c1)c(/C=C1\Oc3cc(O)cc(O)c3C1=O)c(C)n2CCN1CCC(O)CC1` [Example 320, (2Z)-4,6-Dihydroxy-2-({1-[2-(4-hydroxypiperidin-1-yl)ethyl]-5-methoxy-2-methyl-1H-indol-3-yl}methylene)-1-benzofuran-3(2H)-one] are 12.8 nM, 22 nM, 0.8 nM, 36.5 nM and 3 nM.
The corresponding values for `O=C1/C(=C/c2c(-c3ccc(F)cc3)[nH]c3ccccc23)Oc2c1ccc(O)c2O` [Example 56, (2Z)-2-{[2-(4-fluorophenyl)-1H-indol-3-yl]methylene}-6,7-dihydroxy-1-benzofuran-3(2H)-one] are greater than 20000 nM, 251 nM, 108 nM, 1950 nM and 190 nM.
`COc1ccc2c(c1)c(C=C1Oc3cc(O)cc(O)c3C1=O)cn2CCCN(C)C` [Example 114, 2-({1-[3-(dimethylamino)propyl]-5-methoxy-1H-indol-3-yl}methylene)-4,6-dihydroxy-1-benzofuran-3(2H)-one]: the half-maximal inhibitory concentration (IC50) was 2120 nM in assay [1] (setting [6]); 221 nM in assay [2]; 11.5 nM in assay [3]; 2420 nM in assay [4]; 40 nM in assay [5] (PI3Kα Avg. IC50).
As for `COc1ccc2c(c1)c(/C=C1\Oc3cc(O)cc(O)c3C1=O)c(C(=O)N(C)C)n2CCN1CCC(O)C1` (stereo not shown) [Example 306, 3-[(Z)-(4,6-Dihydroxy-3-oxo-1-benzofuran-2(3H)-ylidene)methyl]-1-[2-(3-hydroxypyrrolidin-1-yl)ethyl]-5-methoxy-N,N-dimethyl-1H-indole-2-carboxamide], the 50% inhibitory concentration (IC50) in assay [1] (setting [6]) amounted to 130 nM; in assay [2], 20.5 nM; in assay [3], 3 nM; in assay [4], 144 nM; in assay [5] (read-out: PI3Kα Avg. IC50) it was 8.5 nM.
As to `COc1ccc2c(c1)c(/C=C1\Oc3cc(O)cc(O)c3C1=O)cn2CCN1CCC(O)C1` (stereo not shown) [Example 326, (2Z)-4,6-Dihydroxy-2-({1-[2-(3-hydroxypyrrolidin-1-yl)ethyl]-5-methoxy-1H-indol-3-yl}methylene)-1-benzofuran-3(2H)-one], the IC50 in assay [1] (setting [6]) was determined as 540 nM; in assay [2] it was 88 nM; in assay [3] it was 9.5 nM; in assay [4], 150 nM; in assay [5] (read-out: PI3Kα Avg. IC50), 58 nM.
Consider `COc1ccc2c(c1)c(/C=C1\Oc3cc(O)cc(O)c3C1=O)cn2CCN1CCN(C)CC1` [Example 308, (2Z)-4,6-Dihydroxy-2-({5-methoxy-1-[2-(4-methylpiperazin-1-yl)ethyl]-1H-indol-3-yl}methylene)-1-benzofuran-3(2H)-one], for which the IC50 came out at 270 nM in assay [1] (setting [6]); 23.5 nM in assay [2]; 5.5 nM in assay [3]; 1030 nM in assay [4]; 25.5 nM in assay [5] (read-out: PI3Kα Avg. IC50).
As to `COc1ccc2c(c1)c(/C=C1\Oc3cc(O)cc(O)c3C1=O)c(C(F)(F)F)n2CCn1cccn1` [Example 337, (2Z)-4,6-Dihydroxy-2-({5-methoxy-1-[2-(1H-pyrazol-1-yl)ethyl]-2-(trifluoromethyl)-1H-indol-3-yl}methylene)-1-benzofuran-3(2H)-one], the 50% inhibitory concentration (IC50) in assay [1] (setting [6]) came out at 20.5 nM; in assay [2], 75.3 nM; in assay [3], 9.7 nM; in assay [4], 7 nM; in assay [5] (read-out: PI3Kα Avg. IC50), 13 nM.
As for `COc1ccc2c(c1)c(/C=C1\Oc3cc(O)ccc3C1=O)c(C(=O)N(C)C)n2CCN1CCN(C)CC1` [Example 335, 3-[(Z)-(6-Hydroxy-3-oxo-1-benzofuran-2(3H)-ylidene)methyl]-5-methoxy-N,N-dimethyl-1-[2-(4-methylpiperazin-1-yl)ethyl]-1H-indole-2-carboxamide], the IC50 in assay [1] (setting [6]) is 1650 nM; in assay [2], 22 nM; in assay [3] it was 2 nM; in assay [4] it was 588 nM; in assay [5] (read-out: PI3Kα Avg. IC50) it was 9 nM.
In the case of `COc1ccc2c(c1)c(C=C1Oc3cc(O)cc(O)c3C1=O)c(C)n2CCCN1CCC(N(C)C)C1` (stereo not shown) [Example 104, 2-[(1-{3-[3-(dimethylamino)pyrrolidin-1-yl]propyl}-5-methoxy-2-methyl-1H-indol-3-yl)methylene]-4,6-dihydroxy-1-benzofuran-3(2H)-one], the IC50 in assay [1] (setting [6]) was found to be 130 nM; in assay [2], 19 nM; in assay [3], 2.3 nM; in assay [4], 162 nM; in assay [5] (read-out: PI3Kα Avg. IC50), 5.7 nM.
On to `COc1ccc2c(c1)c(/C=C1\Oc3cc(O)ccc3C1=O)c(C1CC1)n2CCn1cccn1` [Example 355, (2Z)-2-({2-Cyclopropyl-5-methoxy-1-[2-(1H-pyrazol-1-yl)ethyl]-1H-indol-3-yl}methylene)-6-hydroxy-1-benzofuran-3(2H)-one], for which the IC50 in assay [1] (setting [6]) is 13 nM; in assay [2] it was 17 nM; in assay [3], 2.5 nM; in assay [4], 36 nM; in assay [5] (read-out: PI3Kα Avg. IC50) it was 8.6 nM.
Take `COc1ccc2c(c1)c(/C=C1\Oc3cc(O)ccc3C1=O)c(C)n2CCCN1CCCCCC1` [Example 358, (2Z)-2-{[1-(3-Azepan-1-ylpropyl)-5-methoxy-2-methyl-1H-indol-3-yl]methylene}-6-hydroxy-1-benzofuran-3(2H)-one]: the IC50 is greater than 800 nM in assay [1] (setting [6]); 95.5 nM in assay [2]; less than 1 nM in assay [3]; 239 nM in assay [4]; 7.5 nM in assay [5] (read-out: PI3Kα Avg. IC50).
Turning to `COc1ccc2c(c1)c(C=C1Oc3cc(O)cc(O)c3C1=O)cn2CCCN1CCN(CCO)CC1` [Example 113, 4,6-dihydroxy-2-[(1-{3-[4-(2-hydroxyethyl)piperazin-1-yl]propyl}-5-methoxy-1H-indol-3-yl)methylene]-1-benzofuran-3(2H)-one], the IC50 in assay [1] (setting [6]) came out at 1650 nM; in assay [2], 243 nM; in assay [3], 7 nM; in assay [4], 1360 nM; in assay [5] (PI3Kα Avg. IC50), 37 nM.
Taken in the same sequence, the figures for `COc1ccc2c(c1)c(C=C1Oc3cc(O)cc(O)c3C1=O)c(C)n2CCCN1CCN(C)CC1` [Example 95, 4,6-dihydroxy-2-({5-methoxy-2-methyl-1-[3-(4-methylpiperazin-1-yl)propyl]-1H-indol-3-yl}methylene)-1-benzofuran-3(2H)-one] were 153 nM, 27 nM, 2 nM, 402 nM and 14.7 nM.
In the case of `COc1ccc2c(c1)c(C=C1Oc3cc(O)cc(O)c3C1=O)c(C)n2CCCN(C)C` [Example 106, 2-({1-[3-(dimethylamino)propyl]-5-methoxy-2-methyl-1H-indol-3-yl}methylene)-4,6-dihydroxy-1-benzofuran-3(2H)-one], the half-inhibitory concentration (IC50) in assay [1] (setting [6]) is 117 nM; in assay [2], 17.5 nM; in assay [3] it was 2 nM; in assay [4], 404 nM; in assay [5] (read-out: PI3Kα Avg. IC50), 5.3 nM.

Values taken from US20090311217A1, “3-SUBSTITUTED-1H-INDOLE COMPOUNDS, THEIR USE AS MTOR KINASE AND PI3 KINASE INHIBITORS, AND THEIR SYNTHESES” (priority 2008, published 2009).
